Test results: US20160375006A1, “USES OF PARALOG-SELECTIVE INHIBITORS OF GSK3 KINASES” (priority 2012, published 2016)

Experiments:
PAK4 = PAK4 (Homo sapiens, UniProt O96013)
Method: (§1) This was completed utilizing one of two assays depending on the kinase being examined.
(§2) A solution of IMAP binding reagent (IMAP Screening Express kit; Molecular Devices) (60 μL) was added to each well and incubated for 30 minutes.
(§3) A solution of termination buffer (QuickScout Screening assist MSA; Carna Biosciences) (60 μL) was added to each well. The entire reaction mixture was then applied to a LabChip3000 system (Caliper Life Science) and the product and substrate peptide peaks were separated and quantified.

ROS = ROS (Homo sapiens, UniProt P08922)
Method: as §1, §2, §3
(§4) The assay utilized was identical to that of the single point inhibitory activity determination (MSA) but run in dose response. […] A solution of termination buffer (QuickScout Screening assist MSA; Carna Biosciences) (60 μL) was added to each well. The entire reaction mixture was then applied to a LabChip3000 system (Caliper Life Science) and the product and substrate peptide peaks were separated and quantified.

CDK7/CycH/MAT1 = CDK7/CycH/MAT1 (Homo sapiens, UniProt P50613)
Method: as §1, §2, §3, §4

YES = YES (Homo sapiens, UniProt P07947)
Method: as §1, §2, §3

TNIK = TNIK (Homo sapiens, UniProt Q9UKE5)
Method: as §1, §2, §3, §4

AMPKα2/β1/γ1 = AMPKα2/β1/γ1 (Homo sapiens, UniProt P54646)
Method: as §1, §3
(§5) The assay utilized was identical to that of the single point inhibitory activity determination (MSA) but run in dose response.

MLK3_Cascade = MLK3_Cascade (Homo sapiens, UniProt Q16584)
Method: as §1, §2, §3, §4

TSSK3 = TSSK3 (Homo sapiens, UniProt Q96PN8)
Method: as §1, §2, §3, §4

SRC = SRC (Homo sapiens, UniProt P12931)
Method: as §1, §2, §3, §4

p38δ = p38δ (Homo sapiens, UniProt O15264)
Method: as §1, §2, §3, §4

ALK(F1174L) = ALK(F1174L) (Homo sapiens, UniProt Q9UM73, F1174L)
Method: as §1, §2, §3

ABL(T315I) = ABL(T315I) (Homo sapiens, UniProt P00519, T315I)
Method: as §1, §2, §3, §4

RSK2 = RSK2 (Homo sapiens, UniProt P51812)
Method: as §1, §2, §3, §4

PDGFRβ = PDGFRβ (Homo sapiens, UniProt P09619)
Method: as §1, §2, §3, §4

IKKα = IKKα (Homo sapiens, UniProt O15111)
Method: as §1, §2, §3, §4

ABL(E255K) = ABL(E255K) (Homo sapiens, UniProt P00519, E255K)
Method: as §1, §2, §3

CK1ε = CK1ε (Homo sapiens, UniProt P49674)
Method: as §1, §2, §3

TEC = TEC (Homo sapiens, UniProt P42680)
Method: as §1, §2, §3, §4

MAPKAPK5 = MAPKAPK5 (Homo sapiens, UniProt Q8IW41)
Method: as §1, §2, §3, §4

CLK3 = CLK3 (Homo sapiens, UniProt P49761)
MSSK1 = MSSK1 (Homo sapiens, UniProt Q9UPE1)
Method: as §1, §2, §3, §4

MAP2K5_Cascade = MAP2K5_Cascade (Homo sapiens, UniProt Q13163)
Method: as §2, §3, §4

EPHA1 = EPHA1 (Homo sapiens, UniProt P21709)
Method: as §2, §3, §4

MSK2 = MSK2 (Homo sapiens, UniProt O75676)
Method: as §1, §2, §3, §4

DYRK2 = DYRK2 (Homo sapiens, UniProt Q92630)
Method: as §1, §2, §3, §4

FGR = FGR (Homo sapiens, UniProt P09769)
Method: as §1, §2, §3, §4

RON = RON (Homo sapiens, UniProt Q04912)
Method: as §1, §2, §3, §4

AMPKα1/β1/γ1 = AMPKα1/β1/γ1 (Homo sapiens, UniProt Q13131)
From the text: as §1, §5

NEK2 = NEK2 (Homo sapiens, UniProt P51955)
Method: as §1, §2, §3, §4

Haspin = Haspin (Homo sapiens, UniProt Q8TF76)
Method: as §1, §2, §3, §4

EPHA7 = EPHA7 (Homo sapiens, UniProt Q15375)
Method: as §1, §2, §3, §4

MNK2 = MNK2 (Homo sapiens, UniProt Q9HBH9)
Method: as §1, §2, §3

DYRK1B = DYRK1B (Homo sapiens, UniProt Q9Y463)
Method: as §1, §2, §3, §4

HIPK1 = HIPK1 (Homo sapiens, UniProt Q86Z02)
Method: as §1, §2, §3

PDK1 = PDK1 (Homo sapiens, UniProt O15530)
Method: as §1, §2, §3, §4

CGK2 = CGK2 (Homo sapiens, UniProt Q13237)
Method: as §1, §2, §3, §4

PKCγ = PKCγ (Homo sapiens, UniProt P05129)
Method: as §1, §2, §3, §4

HER2 = HER2 (Homo sapiens, UniProt P04626)
Method: as §1, §2, §3, §4

LATS2 = LATS2 (Homo sapiens, UniProt Q9NRM7)
Method: as §1, §2, §3, §4

FGFR4 = FGFR4 (Homo sapiens, UniProt P22455)
Method: as §1, §2, §3

CRIK = CRIK (Homo sapiens, UniProt O14578)
Method: as §1, §2, §3

MSK2, sequence (O75676 whole entry): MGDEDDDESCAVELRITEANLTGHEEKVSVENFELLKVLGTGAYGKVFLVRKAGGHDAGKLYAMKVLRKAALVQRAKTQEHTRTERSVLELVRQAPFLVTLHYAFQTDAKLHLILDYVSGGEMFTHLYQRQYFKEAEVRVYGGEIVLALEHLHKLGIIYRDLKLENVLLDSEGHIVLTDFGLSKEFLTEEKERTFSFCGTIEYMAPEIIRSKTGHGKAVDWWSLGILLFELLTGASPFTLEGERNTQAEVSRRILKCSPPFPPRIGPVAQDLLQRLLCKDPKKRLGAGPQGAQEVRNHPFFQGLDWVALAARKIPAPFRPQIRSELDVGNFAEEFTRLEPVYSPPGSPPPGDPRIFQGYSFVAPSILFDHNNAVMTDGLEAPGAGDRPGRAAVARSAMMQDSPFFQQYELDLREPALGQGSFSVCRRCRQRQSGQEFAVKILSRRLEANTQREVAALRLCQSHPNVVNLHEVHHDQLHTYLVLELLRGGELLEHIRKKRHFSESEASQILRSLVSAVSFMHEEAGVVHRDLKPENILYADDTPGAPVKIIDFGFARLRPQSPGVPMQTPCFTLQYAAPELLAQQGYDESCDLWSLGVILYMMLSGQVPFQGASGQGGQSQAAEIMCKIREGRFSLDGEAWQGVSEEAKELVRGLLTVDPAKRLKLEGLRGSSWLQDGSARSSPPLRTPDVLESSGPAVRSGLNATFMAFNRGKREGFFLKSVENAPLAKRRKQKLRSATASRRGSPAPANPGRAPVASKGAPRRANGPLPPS
PAK4, sequence (O96013 whole entry): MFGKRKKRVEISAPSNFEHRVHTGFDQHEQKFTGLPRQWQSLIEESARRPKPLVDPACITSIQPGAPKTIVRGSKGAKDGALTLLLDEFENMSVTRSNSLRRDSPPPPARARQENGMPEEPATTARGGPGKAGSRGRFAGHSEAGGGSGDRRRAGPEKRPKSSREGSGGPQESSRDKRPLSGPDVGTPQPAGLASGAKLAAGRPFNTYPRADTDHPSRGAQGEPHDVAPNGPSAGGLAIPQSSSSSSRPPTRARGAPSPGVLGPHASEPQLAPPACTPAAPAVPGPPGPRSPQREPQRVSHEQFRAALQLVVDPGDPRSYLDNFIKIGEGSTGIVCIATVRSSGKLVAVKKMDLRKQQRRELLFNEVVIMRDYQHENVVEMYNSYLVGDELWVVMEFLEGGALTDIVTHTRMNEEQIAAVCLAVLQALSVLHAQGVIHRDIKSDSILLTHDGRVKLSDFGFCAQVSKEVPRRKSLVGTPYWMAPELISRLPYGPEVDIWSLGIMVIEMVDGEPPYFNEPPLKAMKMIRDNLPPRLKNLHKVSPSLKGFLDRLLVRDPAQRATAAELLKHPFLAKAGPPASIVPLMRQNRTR
EPHA7, sequence (Q15375 28-998): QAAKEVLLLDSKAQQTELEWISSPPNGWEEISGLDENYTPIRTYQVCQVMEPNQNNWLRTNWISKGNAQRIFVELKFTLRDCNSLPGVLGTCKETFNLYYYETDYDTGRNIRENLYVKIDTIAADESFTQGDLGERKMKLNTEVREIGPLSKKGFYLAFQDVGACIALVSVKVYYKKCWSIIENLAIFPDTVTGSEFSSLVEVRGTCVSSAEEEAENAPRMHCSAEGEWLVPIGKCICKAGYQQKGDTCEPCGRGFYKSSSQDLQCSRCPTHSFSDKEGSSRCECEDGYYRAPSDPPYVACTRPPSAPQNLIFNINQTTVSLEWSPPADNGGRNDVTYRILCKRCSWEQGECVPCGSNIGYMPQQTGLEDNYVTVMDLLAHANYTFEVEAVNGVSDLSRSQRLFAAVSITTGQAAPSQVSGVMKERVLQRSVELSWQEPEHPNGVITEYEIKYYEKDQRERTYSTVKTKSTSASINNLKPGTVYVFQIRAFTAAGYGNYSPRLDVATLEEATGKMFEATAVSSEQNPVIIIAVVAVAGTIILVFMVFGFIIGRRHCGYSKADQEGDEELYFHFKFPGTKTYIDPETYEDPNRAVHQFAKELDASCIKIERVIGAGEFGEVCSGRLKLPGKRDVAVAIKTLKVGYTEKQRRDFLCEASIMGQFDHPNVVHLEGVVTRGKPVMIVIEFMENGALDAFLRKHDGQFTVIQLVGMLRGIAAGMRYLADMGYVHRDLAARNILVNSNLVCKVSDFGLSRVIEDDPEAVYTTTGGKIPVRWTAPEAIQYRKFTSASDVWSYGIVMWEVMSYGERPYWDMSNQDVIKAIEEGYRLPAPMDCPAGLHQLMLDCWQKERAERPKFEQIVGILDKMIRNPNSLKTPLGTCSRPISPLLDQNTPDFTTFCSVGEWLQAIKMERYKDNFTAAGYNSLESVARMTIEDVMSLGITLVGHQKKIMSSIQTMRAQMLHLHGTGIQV
NEK2, sequence (P51955 whole entry): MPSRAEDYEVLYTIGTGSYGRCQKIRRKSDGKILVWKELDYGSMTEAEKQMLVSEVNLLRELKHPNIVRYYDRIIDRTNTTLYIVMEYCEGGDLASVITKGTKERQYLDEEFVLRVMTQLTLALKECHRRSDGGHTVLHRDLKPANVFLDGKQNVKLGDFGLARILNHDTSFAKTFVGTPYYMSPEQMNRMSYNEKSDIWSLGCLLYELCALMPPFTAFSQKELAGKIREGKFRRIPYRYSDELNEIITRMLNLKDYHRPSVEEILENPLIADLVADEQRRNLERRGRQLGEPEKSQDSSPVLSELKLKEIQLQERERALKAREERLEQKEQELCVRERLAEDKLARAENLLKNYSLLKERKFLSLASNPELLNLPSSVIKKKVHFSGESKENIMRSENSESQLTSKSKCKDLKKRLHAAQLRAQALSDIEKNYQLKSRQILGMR
MAP2K5_Cascade, sequence (Q13163 whole entry): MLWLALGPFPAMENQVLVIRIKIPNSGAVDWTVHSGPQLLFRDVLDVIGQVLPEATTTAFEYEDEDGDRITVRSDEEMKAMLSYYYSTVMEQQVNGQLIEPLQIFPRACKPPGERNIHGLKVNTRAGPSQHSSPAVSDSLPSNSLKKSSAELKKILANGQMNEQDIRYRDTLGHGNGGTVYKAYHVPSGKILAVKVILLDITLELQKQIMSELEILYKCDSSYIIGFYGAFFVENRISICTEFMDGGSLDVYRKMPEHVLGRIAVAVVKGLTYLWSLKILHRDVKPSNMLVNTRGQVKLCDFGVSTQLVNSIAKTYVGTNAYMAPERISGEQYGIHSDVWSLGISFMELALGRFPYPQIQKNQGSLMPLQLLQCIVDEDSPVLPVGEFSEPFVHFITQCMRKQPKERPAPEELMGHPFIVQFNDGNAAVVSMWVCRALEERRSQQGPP
TNIK, sequence (Q9UKE5 whole entry): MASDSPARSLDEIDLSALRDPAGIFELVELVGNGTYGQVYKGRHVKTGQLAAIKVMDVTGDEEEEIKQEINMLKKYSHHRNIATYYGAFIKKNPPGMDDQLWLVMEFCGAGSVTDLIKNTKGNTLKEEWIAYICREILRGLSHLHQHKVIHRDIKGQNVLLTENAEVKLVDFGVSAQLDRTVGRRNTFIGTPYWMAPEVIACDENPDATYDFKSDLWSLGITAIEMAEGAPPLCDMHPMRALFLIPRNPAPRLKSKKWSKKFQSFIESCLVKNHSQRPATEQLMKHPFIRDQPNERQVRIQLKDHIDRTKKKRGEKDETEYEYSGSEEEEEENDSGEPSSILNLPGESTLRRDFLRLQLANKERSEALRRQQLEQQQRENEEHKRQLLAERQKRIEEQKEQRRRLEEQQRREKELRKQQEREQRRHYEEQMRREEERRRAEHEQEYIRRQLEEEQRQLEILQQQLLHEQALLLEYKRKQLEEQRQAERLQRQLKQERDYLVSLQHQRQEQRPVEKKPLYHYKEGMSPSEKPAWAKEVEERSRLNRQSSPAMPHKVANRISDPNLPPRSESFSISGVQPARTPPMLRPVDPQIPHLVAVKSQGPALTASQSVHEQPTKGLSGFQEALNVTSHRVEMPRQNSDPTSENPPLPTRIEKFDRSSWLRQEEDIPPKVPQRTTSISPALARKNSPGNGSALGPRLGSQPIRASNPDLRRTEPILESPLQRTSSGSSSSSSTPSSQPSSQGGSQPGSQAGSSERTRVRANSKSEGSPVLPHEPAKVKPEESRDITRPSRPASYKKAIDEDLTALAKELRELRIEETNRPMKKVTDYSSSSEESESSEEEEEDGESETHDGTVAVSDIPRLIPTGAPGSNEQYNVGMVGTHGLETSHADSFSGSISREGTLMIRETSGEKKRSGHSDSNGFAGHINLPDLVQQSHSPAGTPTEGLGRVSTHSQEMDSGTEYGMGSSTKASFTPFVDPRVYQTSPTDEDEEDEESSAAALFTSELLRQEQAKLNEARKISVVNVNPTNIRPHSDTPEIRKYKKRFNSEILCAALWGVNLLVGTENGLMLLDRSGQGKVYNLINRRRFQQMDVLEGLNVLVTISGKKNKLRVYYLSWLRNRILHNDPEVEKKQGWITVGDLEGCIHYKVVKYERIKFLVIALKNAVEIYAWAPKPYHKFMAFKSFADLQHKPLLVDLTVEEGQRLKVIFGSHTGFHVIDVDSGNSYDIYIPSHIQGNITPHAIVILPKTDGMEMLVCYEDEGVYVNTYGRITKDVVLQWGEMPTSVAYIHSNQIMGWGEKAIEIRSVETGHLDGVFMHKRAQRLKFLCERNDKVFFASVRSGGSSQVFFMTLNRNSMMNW
CK1ε, sequence (P49674 whole entry): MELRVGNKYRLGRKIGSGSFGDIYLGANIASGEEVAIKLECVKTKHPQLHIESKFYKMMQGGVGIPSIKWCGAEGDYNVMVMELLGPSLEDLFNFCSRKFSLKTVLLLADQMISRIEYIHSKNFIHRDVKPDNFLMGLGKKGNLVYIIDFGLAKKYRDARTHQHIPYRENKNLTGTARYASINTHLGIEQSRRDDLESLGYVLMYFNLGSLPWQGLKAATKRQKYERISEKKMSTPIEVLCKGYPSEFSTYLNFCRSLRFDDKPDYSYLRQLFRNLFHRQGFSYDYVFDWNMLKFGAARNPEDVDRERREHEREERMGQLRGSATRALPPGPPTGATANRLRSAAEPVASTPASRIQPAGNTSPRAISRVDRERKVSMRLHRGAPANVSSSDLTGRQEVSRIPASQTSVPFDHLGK

CC[C@@]1(c2ccccc2)C2=C(CC(C)(C)CC2=O)Nc2n[nH]cc21 [BRD0705]
% Inhibition at 10 μM (PAK4): 33.8% | % Inhibition at 10 μM (ROS): 31.3% | % Inhibition at 10 μM (CDK7/CycH/MAT1): 8.3% | % Inhibition at 10 μM (YES): 7.9% | % Inhibition at 10 μM (TNIK): 6.8% | % Inhibition at 10 μM (AMPKα2/β1/γ1): 5.1% | % Inhibition at 10 μM (MLK3_Cascade): 4.6% | % Inhibition at 10 μM (TSSK3): 3.5% | % Inhibition at 10 μM (SRC): 3.2% | % Inhibition at 10 μM (p38δ): 2.4% | % Inhibition at 10 μM (ALK(F1174L)): 1.7% | % Inhibition at 10 μM (ABL(T315I)): 0.7% | % Inhibition at 10 μM (RSK2): 0.4% | % Inhibition at 10 μM (PDGFRβ): 0.3% | % Inhibition at 10 μM (IKKα): −0.2% | % Inhibition at 10 μM (ABL(E255K)): −0.3% | % Inhibition at 10 μM (CK1ε): −0.4% | % Inhibition at 10 μM (TEC): −0.4% | % Inhibition at 10 μM (MAPKAPK5): −1.0% | % Inhibition at 10 μM (CLK3): −1.5% | % Inhibition at 10 μM (MSSK1): −1.6% | % Inhibition at 10 μM (MAP2K5_Cascade): −2.3% | % Inhibition at 10 μM (EPHA1): −2.3% | % Inhibition at 10 μM (MSK2): −2.5% | % Inhibition at 10 μM (DYRK2): −3.0% | % Inhibition at 10 μM (FGR): −3.4% | % Inhibition at 10 μM (RON): −3.8% | % Inhibition at 10 μM (AMPKα1/β1/γ1): −4.1% | % Inhibition at 10 μM (NEK2): −4.5% | % Inhibition at 10 μM (Haspin): −5.1% | % Inhibition at 10 μM (EPHA7): −5.3% | % Inhibition at 10 μM (MNK2): −5.9% | % Inhibition at 10 μM (DYRK1B): −6.1% | % Inhibition at 10 μM (HIPK1): −6.5% | % Inhibition at 10 μM (PDK1): −6.7% | % Inhibition at 10 μM (CGK2): −7.3% | % Inhibition at 10 μM (PKCγ): −8.0% | % Inhibition at 10 μM (HER2): −11.1% | % Inhibition at 10 μM (LATS2): −11.9% | % Inhibition at 10 μM (FGFR4): −13.4% | % Inhibition at 10 μM (CRIK): −15.2%

CC(C)(C)Cc1[nH]nc2c1[C@](C)(c1ccccc1)C1=C(CC(C)(C)CC1=O)N2 [BRD3731]
% Inhibition 10 μM (PAK4; 10 μM): 0.6% | % Inhibition 10 μM (ROS; 10 μM): 0.9% | % Inhibition 10 μM (CDK7/CycH/MAT1; 10 μM): 21.3% | % Inhibition 10 μM (YES; 10 μM): 1.6% | % Inhibition 10 μM (TNIK; 10 μM): −1.2% | % Inhibition 10 μM (AMPKα2/β1/γ1; 10 μM): 16.7% | % Inhibition 10 μM (MLK3_Cascade; 10 μM): −0.8% | % Inhibition 10 μM (TSSK3; 10 μM): 33.6% | % Inhibition 10 μM (SRC; 10 μM): 1.0% | % Inhibition 10 μM (p38δ; 10 μM): −0.2% | % Inhibition 10 μM (ALK(F1174L); 10 μM): 0.2% | % Inhibition 10 μM (ABL(T315I); 10 μM): −2.4% | % Inhibition 10 μM (RSK2; 10 μM): 42.8% | % Inhibition 10 μM (PDGFRβ; 10 μM): 3.1% | % Inhibition 10 μM (IKKα; 10 μM): 1.8% | % Inhibition 10 μM (ABL(E255K); 10 μM): 8.3% | % Inhibition 10 μM (CK1ε; 10 μM): 28.0% | % Inhibition 10 μM (TEC; 10 μM): 2.3% | % Inhibition 10 μM (MAPKAPK5; 10 μM): 6.1% | % Inhibition 10 μM (CLK3; 10 μM): 4.0% | % Inhibition 10 μM (MSSK1; 10 μM): 2.8% | % Inhibition 10 μM (MAP2K5_Cascade; 10 μM): 6.1% | % Inhibition 10 μM (EPHA1; 10 μM): 2.1% | % Inhibition 10 μM (MSK2; 10 μM): 12.6% | % Inhibition 10 μM (DYRK2; 10 μM): 4.1% | % Inhibition 10 μM (FGR; 10 μM): 12.0% | % Inhibition 10 μM (RON; 10 μM): 2.3% | % Inhibition 10 μM (AMPKα1/β1/γ1; 10 μM): 11.2% | % Inhibition 10 μM (NEK2; 10 μM): −2.1% | % Inhibition 10 μM (Haspin; 10 μM): 5.3% | % Inhibition 10 μM (EPHA7; 10 μM): −3.0% | % Inhibition 10 μM (MNK2; 10 μM): −5.6% | % Inhibition 10 μM (DYRK1B; 10 μM): 2.0% | % Inhibition 10 μM (HIPK1; 10 μM): 5.8% | % Inhibition 10 μM (PDK1; 10 μM): 2.0% | % Inhibition 10 μM (CGK2; 10 μM): 4.4% | % Inhibition 10 μM (PKCγ; 10 μM): 5.0% | % Inhibition 10 μM (HER2; 10 μM): 3.8% | % Inhibition 10 μM (LATS2; 10 μM): −3.0% | % Inhibition 10 μM (FGFR4; 10 μM): −8.1% | % Inhibition 10 μM (CRIK; 10 μM): −0.7%
